In patent US20100249125A1, “INHIBITION OF PROSTGLANDIN E2 RECEPTORS FOR THE TREATMENT OF ENDOMETRIOSIS” (THE TEXAS A&M UNIVERSITY SYSTEM, priority 2009, published 2010):
Entries after “also recorded” stand apart in the source; their conditions may differ. Where two headings read alike, the source gives them in different places.

How the values were obtained:
[1] = tested on: human endometriotic epithelial cells 12Z; experiment: Cell proliferation assay (Coulter counter); format: cell-based; details: 12Z cells; 0-200 concentration series
Experimental: (§1) EP2/EP4 small interfering RNA (siRNA): 12Z and 22B cells (3.0×10^5/well) were cultured in antibiotic-free DMEM/F12 with 10% FBS in six-well tissue culture plates. At 70-80% confluency, cells were used for EP2, EP4 or EP2/EP4 knock-down experiments using SMART-pool siRNA duplex delivered by DharmaFect-1 as described previously (11) and per manufacturer's instructions (Dharmacon Inc, Lafayette, Colo.). As an internal control, MOCK siRNA was used. According to the manufacturer's instructions, SMARTpool siRNA were consisted of at least four individual siRNA duplexes targeted against a specific gene and designed using a bioinformatics technology known as SMARTselection. […] The inventors used SMARTpool siRNA in order to use more than one siRNA duplex from different regions of the gene of interest to avoid non-specific indirect effects of single siRNA duplex to a single region of the target gene. Briefly, siRNA duplexes (100 nM/well) and DharmaFect-1 (3 μl/well) were diluted in 50 μl antibiotic and serum-free DMEM/F12 medium separately and mixed gently and incubated for 5 min at room temperature. Afterwards, EP2, EP4 or EP2/EP4 siRNA and DharmaFect-1 were mixed (total volume 100 μl) and incubated at room temperature for 20 min. Then, 100 μl siRNA: DharmaFect-1 complex was diluted with 2 ml antibiotic-free media with 10% FBS and added to the well. After 24 h, the medium was replaced with fresh DMEM/F12 with 10% FBS and incubated for 24 h. Fluorescence labeled siGLO RISC-free siRNA was transfected separately and transfection efficiency was estimated using a fluorescence microscope. Transfection efficiency more than 80% was considered as optimal conditions for further experiments. Efficiency of siRNA on silencing of EP2 and EP4 genes and proteins was assessed by RT-PCR and western blot, respectively 72 h post-transfection knock-down efficiency was 70-80% in both 12Z and 22B cells.
(§2) Cell Proliferation Assay: The 12Z and 22B cells (1×10^5/well) were cultured in DMEM/F12 with 10% FBS in six-well plates. At 70%-80% confluency the cells were cultured in DMEM/F12 with 2% dextran charcoal-treated FBS and treated with inhibitors for EP1 (SC19220; […]), EP2 (AH6809; […]), EP4 (AH23848; […]), or a combination of EP2 (AH6809; […]) and EP4 (AH23848; […]) for 36 hours. The concentrations for each inhibitor was determined by dose-response studies using […] and an optimal concentration was selected based on its effects on proliferation of human endometriotic cells (FIGS. 6A-6B). These inhibitors competitively bind with respective receptors and inhibit their functions (40-42). For the siRNA study, 24 hours after transfection of siRNA the medium was replaced and the cells were cultured in 2% dextran charcoal-treated FBS, which was considered as time 0 hour, and cell proliferation was estimated at 36 hours. The number of cells was counted using a Coulter counter (11) and considered as 100% present in control. Data were expressed as mean±SEM of three independent studies conducted in duplicate.

[2] = tested on: human endometriotic stromal cells 22B; experiment: Cell proliferation assay (Coulter counter); format: cell-based; details: 22B cells; 0-200 concentration series
Experimental: as §1, §2

[3] = tested on: human endometriotic epithelial cells 12Z; experiment: Cell viability assay (WST-1); format: cell-based; details: 12Z cells; AH6809 75 μM, AH23848 50 μM, alone or combined; vs control
Experimental: (§3) Cell Viability Assay: The 12Z and 22B cells (1.25×10^4 cells/well) were cultured in DMEM/F12 with 10% FBS in 96-well plates and treated as described previously. At the end of the experiments the cell viability (metabolic activity) was determined using a cell proliferation assay kit WST-1 according to the manufacturer's (Roche Applied Sciences) instructions. Metabolic activity recorded in control cells was considered as 100%. Data were expressed as mean±SEM of three independent experiments conducted in triplicate.

[4] = tested on: human endometriotic stromal cells 22B; experiment: Cell viability assay (WST-1); format: cell-based; details: 22B cells; AH6809 75 μM, AH23848 50 μM, alone or combined; vs control
Experimental: as §3

[5] = tested on: human endometriotic epithelial cells 12Z; experiment: TUNEL apoptosis assay (flow cytometry, fluorescence microscopy); format: cell-based; details: 12Z cells, 24 h; for Induced apoptosis (TUNEL, flow cytometry): AH6809 75 μM, AH23848 50 μM, alone or combined
Experimental: (§4) These well-characterized 12Z and 22B cells were cultured in DMEM/F12 without special steroid treatment containing 10% fetal bovine serum (FBS) and penicillin (100 U/ml), streptomycin (100 μg/ml) and amphotericin-B 2.5 μg/ml in a humidified 5% CO2 and 95% air at 37° C. as we described previously (11, 39). At 70-80% confluency the cells were cultured in DMEM/F12 with 2% dextran-charcoal-treated fetal bovine serum (DC-FBS) and treated with EP inhibitors (EP-I) for EP1 (SC19220-100 100 μM), EP2 (AH6809-75 μM) and/or EP4 (AH23848-50 μM) for 24 h.
as §1
(§5) Terminal deoxynucleotide transferase dUTP nick end labeling (TUNEL) assay: Non-adherent and adherent cells were harvested, mixed together, and resuspended at the concentrations of 1×10^6 cells/ml. Nicks in the DNA were determined by terminal deoxynucleotidyl transferase (TdT) and 5-bromo-2′-deoxyuridine 5′-triphosphate (BrdUTP) labeling using APO-BrdU TUNEL Assay Kit. Detection of BrdU incorporation at DNA break sites was achieved through Alexa Fluor 488 dye-labeled anti-BrdU antibody. The staining procedures were performed as recommended by manufacturers. Numbers of apoptotic cells were analyzed by a flowcytometer (FACSCaliber, Becton Dickinson, San Jose, Calif.) using Cell Quest software. In addition, the presence of TUNEL labeled DNA fragments were determined by fluorescence microscopy. Digital images were captured using a Zeiss Axioplan 2 Research Microscope with an Axiocam HR digital camera.

[6] = tested on: human endometriotic stromal cells 22B; experiment: as above; format: cell-based; details: 22B cells, 24 h; for Induced apoptosis (TUNEL, flow cytometry): AH6809 75 μM, AH23848 50 μM, alone or combined
Experimental: as §4, §1, §5

[7] = Cell viability assay (WST-1); format: cell-based, human; details: human, AH6809 75 μM, AH23848 50 μM, alone or combined, vs control, read-out: Decrease of cell viability
Experimental: as §3

[8] = tested on: human immortalized endometriotic epithelial cells 12Z and stromal cells 22B; details: associated with decreased PGE2 production; cited from earlier work
endometriotic implant = details: hamster model; through caspase-3 dependent apoptosis; cited from earlier work
estrogen receptor = details: treatment of endometriosis in women; cited from earlier work
[9] = tested on: COX-2 along with p450 aromatase; details: 3.75 mg, for 1 month; eutopic endometria; cited from earlier work
endometriotic lesions = details: nude mice model; cited from earlier work
[10] = 25 mg/d for 6 months, women with endometriosis; cited from earlier work

For O=C(O)CC/C=C\CC[C@H]1[C@H](N2CCOCC2)C(=O)C[C@H]1OCc1ccc(-c2ccccc2)cc1 (relative stereo) [AH23848, (4Z)-7-[(rel-1S,2S,5R)-5-((1,1′-Biphenyl-4-yl)methoxy)-2-(4-morpholinyl)-3-oxocyclopentyl]-4-heptenoic acid], the “Proliferation, dose response experiment” value [1] was “decreased (P<0.05) proliferation”, the “Proliferation, dose response experiment” value [2] was “decreased (P<0.05) proliferation” and the “Decrease of cell viability” value [3] was about 55%. The “Decrease of cell viability” value [4] was about 45%, the “Induced apoptosis (TUNEL, flow cytometry)” value (“Induced apoptosis” below) [5] was about 55% and the “Induced apoptosis” value [6] was about 45%.
For CC(C)Oc1ccc2c(=O)c3cc(C(=O)O)ccc3oc2c1 [AH6809, 6-Isopropoxy-9-oxoxanthene-2-carboxylic acid], the “Proliferation, dose response experiment” value [1] was “decreased (P<0.05) proliferation”, the “Proliferation, dose response experiment” value [2] was “decreased (P<0.05) proliferation” and the cytotoxicity at 75 μM ([7]; 12Z endometriotic epithelial cells, 12Z cells) was about 55%. The cytotoxicity at 75 μM ([7]; 22B endometriotic stromal cells, 22B cells) was about 45%, the “Induced apoptosis” value [5] was about 55% and the “Induced apoptosis” value [6] was about 45%.
For CS(=O)(=O)Nc1ccc([N+](=O)[O-])cc1OC1CCCCC1 [NS-398], the “Survival, migration and invasion” value [8] is listed as “prevents survival, migration, and invasion; also recorded: prevents survival, migration and invasion” and the “Regression of endometriotic implant” value (endometriotic implant) is listed as “induced regression of endometriotic implant”.
In the case of CC(=O)NNC(=O)N1Cc2ccccc2Oc2ccc(Cl)cc21 [SC19220], the “Proliferation, dose response experiment” value [1] is reported as “did not decrease proliferation”, the “Proliferation, dose response experiment” value [2] is reported as “did not decrease proliferation” and the “Induction of apoptosis (TUNEL)” value ([5]; SC19220 100 μM) is reported as “did not induce apoptosis”. The “Induction of apoptosis (TUNEL)” value ([6]; SC19220 100 μM) was “did not induce apoptosis”.
For C[C@]12CC[C@@H]3c4ccc(O)cc4C[C@@H](CCCCCCCCC[S+]([O-])CCCC(F)(F)C(F)(F)F)[C@H]3[C@@H]1CC[C@@H]2O (some centres unmarked) [fulvestrant], the “Outcome of clinical trial” value (estrogen receptor) is listed as “discontinued due to unfavorable outcomes”.
In the case of CCNC(=O)[C@@H]1CCCN1C(=O)[C@H](CCCNC(=N)N)NC(=O)[C@H](CC(C)C)NC(=O)[C@@H](CC(C)C)NC(=O)[C@H](Cc1ccc(O)cc1)NC(=O)[C@H](CO)NC(=O)[C@H](Cc1c[nH]c2ccccc12)NC(=O)[C@H](Cc1c[nH]cn1)NC(=O)[C@@H]1CCC(=O)N1 [leuprolide acetate], the “Expression of COX-2 and p450 aromatase” value [9] is listed as “decreased expression of COX-2 along with p450 aromatase”.
In the case of CS(=O)(=O)Nc1ccc([N+](=O)[O-])cc1Oc1ccccc1 [nimesulide], the “Number and size of endometriotic lesions” value (endometriotic lesions) is listed as “failed to decrease number and size of endometriotic lesions”.
In the case of O=C(c1ccc(OCCN2CCCCC2)cc1)c1c(-c2ccc(O)cc2)sc2cc(O)ccc12 [raloxifene], the “Outcome of clinical trial” value (estrogen receptor) is listed as “discontinued due to unfavorable outcomes”.
For CS(=O)(=O)c1ccc(C2=C(c3ccccc3)C(=O)OC2)cc1 [rofecoxib], the Pelvic pain symptoms [10] is given as “effectively suppressed the pelvic pain symptoms”.
